Converted amounts (≈) assume the structure as drawn. “Also recorded” adds a separate entry of the source. Like-named read-outs stand apart in the source and are kept apart here.
Columns and labels:
[1] = test system: primary Vascular Smooth Muscle cells; assay: Cell toxicity / proliferation assay, primary vascular smooth muscle cells; format: cell-based, human
Method: (§1) Cell Toxicity Assay was performed as follows. HeLa, HEK293 and primary VSM cells were seeded at 5×10^3 cells/well in 96-well plates and incubated with Korormicin, PEG-2 or homoserine lactones in DMEM containing 1% fetal bovine serum (FBS; Invitrogen Corp.). After 48 hours, the number of living cells was determined by a colorimetric enzyme assay, based on a cytoplasmic enzyme activity present in viable cells.
Cells were seeded at 5×10^3 cells/well in 96-well plates and incubated with C. trachomatis in DMEM containing 1% fetal bovine serum (FBS; Invitrogen Corp.). After 48 hours, the number of living cells was determined by a colorimetric enzyme assay (CellTiter 96 Cell Proliferation Assay; Promega Corporation, Madison, WI) based on a cytoplasmic enzyme activity present in viable cells. (Cory et al. Use of an aqueous soluble tetrazolium/formazan assay for cell growth assays in culture. Cancer Commun. 1991; 3:207-212). The absorbance of a formazan product in tissue culture media was measured at 500 nm using a microplate reader.

[2] = test system: HeLa cell line; assay: Cell toxicity assay, HeLa cells; format: cell-based, human; details: HeLa, concentrations of up to 50 μM
Method: as §1

[3] = test system: HEK293 cells; assay: Cell toxicity assay, HEK293 cells; format: cell-based, human; details: HEK293, concentrations of up to 50 μM
Method: as §1

[4] = test system: Chlamydia trachomatis; assay: C. trachomatis infection of HeLa cells (chlamydial inclusions, immunocytochemistry); format: cell-based; details: for MCC2, Minimal Chlamydicidal Concentration: after 2 passages with treatment
Method: Chlamydia trachomatis (C. trachomatis) propagation and treatment were carried out as follows. C. trachomatis was propagated in HeLa cells. The titer of C. trachomatis was determined in cyclohexamide-treated HeLa cells, and concentrations used were expressed as inclusion forming units (IFU) per mL.
Assessment of the level of infection was determined as follows. HeLa cells were seeded on glass coverslips in 24-well plates at 3×10^4 cells/well and inoculated with C. trachomatis and then treated with antibiotic (or other compounds of interest). After 48 hours, the infected cells were fixed with 100% methanol and then incubated with anti-Chlamydia monoclonal antibody. Inclusion bodies were visualized by staining with FITC-conjugated secondary antibody and DAPI as counterstaining. The samples were examined by a fluorescence microscopy. Number of inclusions was calculated per 100 cells.
Assessment of antichlamydial activity of Korormicin (Scheme shown in FIG. 1) and PEG-2 (Scheme shown in FIG. 2) were performed as follows. Cells were infected with C. trachomatis and treated with different concentrations of antibiotic of choice. After 48 h of C. trachomatis was collected (P1) and used to infect fresh cells. Subsequent collections of C. trachomatis were used to obtain P2, P3, P4 and P5 stocks of C. trachomatis. Dilution of C. trachomatis used to infect cells after treatment with PEG-2 had to be minimized in order to visualize inclusions. Last passage collection of C. trachomatis (P5) of Korormicin treatment and all collected of passages of C. trachomatis treated with PEG-2 were used to establish infectivity of treated Chlamydia (Scheme shown in FIG. 3).
For MIC50 (Minimal Concentration of the antibiotic that inhibits formation of chlamydial inclusions on 50%) determination HeLa cells were grown in 24-well or 96 well plates overnight prior to chlamydial inoculation. Elementary bodies were applied to the cells in small volume of SPG (0.22 M sucrose, 8.6 mM Na2HPO4, 3.8 mM KH2PO4, 5 mM glutamic acid, 0.2 μm-filtered, pH 7.4) and after 2 hours of incubation unattached elementary bodies were removed and infected cells were treated with different concentration of antibiotics in Dulbecco's modified Eagle's medium (DMEM, Invitrogen) with 5% fetal bovine serum (FBS, Invitrogen) in the presence of cycloheximide (1.0 μg/ml). After 42 h inclusions were visualized by immunocytochemistry.
To determent chlamydicidal effect of Korormicin (Scheme 1) and PEG-2 (Scheme 2) Hela cells were infected with C. trachomatis and treated with different concentrations of antibiotics. After 48 h of C. trachomatis was collected (P1) and used to infect fresh cells. Subsequent collections of C. trachomatis were used to obtain P2, P3, P4 and P5 stocks of C. trachomatis. Dilution of C. trachomatis used to infect cells after treatment with PEG-2 had to be minimized in order to visualize inclusions. (See Scheme 2 below). Last passage collection of C. trachomatis (P5) of Korormicin treatment and all collected of passages of C. trachomatis treated with PEG-2 were used to establish infectivity of treated C. trachomatis. Minimal chlamydicidal concentration (MCC2) for Korormicin, PEG-2 and PEG-2S was calculated after 2 passages of infection with treatment and reflect inhibition of infection for more than 90%. In all experiments inclusions were visualized by immunocytochemistry.
Cells were seeded on glass coverslips in 24-well plates (2-4×10^4 cells/well) or on glass-bottom 96 well plates (10^4 cells/well), and after overnight inoculated with C. trachomatis. After 42 hours, the infected cells were fixed with 90% acetone (or 100% methanol in case of 96 well plates) and then incubated with anti-Chlamydia antibody (Thermo Fisher Scientific). Alexa Fluor 488-conjugated anti-rabbit IgG (Molecular Probes) was used as secondary antibody. DAPI staining solution (300 nM) was added to the coverslips to identify nuclei. […]

[5] = test system: HeLa cells infected with C. trachomatis; assay: Intracellular acidification of HeLa cells infected with C. trachomatis; format: cell-based, human
Excerpt: The mechanism of action of PEG-2 was also investigated by monitoring intracellular acidification of infected cells treated with PEG-2. If PEG-2 is working through the inhibition of Na^+-NQR and a sodium motive force, then it would be expected to have an effect on intracellular Na^+ and H^+ concentrations within infected cells. HeLa cells were infected with C. trachomatis and intracellular acidification was monitored with fluorescent indicator dyes.

**Q.** How did the “toxicity to primary cells (in words)” value ([1]; primary Vascular Smooth Muscle cells) turn out when `CCCCCCC/C=C/C=C\[C@H](O)CC(=O)NC1=C[C@](C)(CC)OC1=O` [PEG-2] was run?
**A.** Its value is “low cytotoxicity; also recorded: non-toxic”.

**Q.** What about the toxic effects ([1]; primary Vascular Smooth Muscle cells, concentrations of up to 50 μM) of the same compound?
**A.** The toxic effects was “no toxic effects”.

**Q.** And the “toxic effects on primary cell cultures (VSMC)” value ([1]; up to 20 μM)?
**A.** Its value is “no toxic effects”.

**Q.** And the toxic effects [2]?
**A.** Its toxic effects is “no toxic effects”.

**Q.** And the toxic effects [3]?
**A.** Its toxic effects is “no toxic effects”.

**Q.** What about the “efficacy against C. trachomatis infection (in words)” value [4] of the same compound?
**A.** The value was “effective”.

**Q.** What about the “decrease of infectivity (number of chlamydial inclusions in the next passage)” value ([4]; 1st treatment, 15 μM) of the same compound?
**A.** Its value is about 5 fold.

**Q.** And the “number of inclusions, of control” value ([4]; 5 consecutive treatments, 15 μM)?
**A.** Its value is 0.01%.

**Q.** What about the “MCC2, Minimal Chlamydicidal Concentration” value [4] of the same compound?
**A.** The value was 5.45 µg/mL.

**Q.** What about the “MCC2, Minimal Chlamydicidal Concentration” value ([4]; inhibition of infection for more than 90%) of the same compound?
**A.** The value was 15 µM.

**Q.** And the “number of detectable inclusions lower” value ([4]; after 5 consecutive treatments, 15 μM)?
**A.** The value was 10,000 times.

**Q.** And the “MIC501, Minimal Inhibitory Concentration after the treatment” value ([4]; first treatment)?
**A.** The value was 3.63 µg/mL (≈ 9.99 µM).

**Q.** What about the “size of chlamydial inclusions” value ([4]; fluorescence microscopy) of the same compound?
**A.** Its value is “noticeably smaller”.

**Q.** What about the IC50 ([4]; read-out: MIC501, Minimal Inhibitory Concentration after the treatment, first treatment, 50% inhibition of inclusion formation) of the same compound?
**A.** The IC50 was 10 µM.

**Q.** And the IC50 ([4]; read-out: MIC502, Minimal Inhibitory Concentration after the second treatment, second treatment)?
**A.** Its IC50 is 4 µM.

**Q.** And the “MIC502, Minimal Inhibitory Concentration after the second treatment” value ([4]; second treatment)?
**A.** The value was 1.45 µg/mL (≈ 3.99 µM).

**Q.** What about the “delay of the initial C. trachomatis-induced acidification” value [5] of the same compound?
**A.** The value was “at least 2 hours”.

**Q.** And the “effect on the following acidification” value [5]?
**A.** Its value is “diminishes the following acidification”.

— patent US12029716B2, “Derivatives of korormicin useful as antibiotics” (Viotika Life Sciences Inc., priority 2015, dated 2024)
